# Entries after “also recorded” stand apart in the source; their conditions may differ.
# Columns and labels:
# Collagen - Rat tail = biological target: T1, Collagen - Rat tail (Rattus norvegicus, UniProt P02454+P02466); assay: Collagen fibrillogenesis assay (turbidity, 405 nm plate reader); assay type: biochemical; conditions: for inhibition of collagen fibrillogenesis / collagen fibril formation: increasing doses of polymer
# T1 construct: purchased Corning; host or cells: rat tail
# Protocol: Collagen fibrillogenesis was undertaken using collagen acquired from Corning to assess the ability of carrageenans with different degrees of sulphation, gellan gum (LA) and heparan sulphate on their ability to alter fibrillogenesis.
# • PBS - Dulbecco’s PBS pH 7.4 • Carrageenans (iota and kappa) (Sigma) • (CGLA) (Kelcogel; Lot #: 5C1623A) • Heparan sulphate (Tinzaparin - mw ~ 9000) • Collagen - Rat tail - Corning 4.04 mg/ml • Deionised water
# 1. Preparation of stock solutions: • a. A 0.2% (w/v) solution of both carrageenans, gellan and heparan in water were prepared. (0.1 g polymer in 50 ml water) • b. Mixtures were stirred until fully dispersed/hydrated. (prevent water loss by covering the beaker)
# 2. Preparation of Buffers: • a. PBS diluent buffer; • i. To 200 ml deionised water add sodium phosphate (0.35 g) (0.348 g)and sodium chloride (2.05 g) (2.061 g) • ii. Adjust pH to 7.40 and adjust final volume to 250 ml. • iii. Store at room temperature. • b. PBS reaction buffer; • i. To 200 ml deionised water add sodium phosphate (2.07 g) (2.081 g) and sodium chloride (4.09 g) (4.091 g) • ii. Adjust pH to 7.40. • iii. Add deionised water to create a final volume of 250 ml. • iv. Store at room temp.
# 3. Collagen fibrillogenesis assay: • a. Pipette […] of buffer (PBS) into rows A and B for blanks. • b. Standard curve generated in a dilution plate. Add 150 ml of each preparation into C1, D1 and E1. • c. Add 150 mL of sample to rows F1, G1 and H1. • d. Add […] of buffer (PBS) to the additional columns 2 to 12. • e. Using a multi-channel pipette, preform a 2-fold dilution by transferring […] from column 1 to column 2. Continue serial diluting through to column 12. Discard the extra […] from column 12. • f. Calculate volume of collagen needed to make 10 ml (enough for 1 plate) at a concentration of […] in chilled water and gently mix.
# Target conc. (0.8 mg/ml)Collagen stock conc. in mg/ml × 10=ml of collagen required
# 10 ml- ?ml of collagen required= ??ml of water required • a. Add […] of collagen to each row (B to H). • b. Add 150 ml of phosphate buffer to all of the wells. • c. Incubate for 2-4 hrs at room temperature and analysed using 405 nm plate reader. (correct for the plate by using 570 nm reference)
# Each sample was replicated 3 times, two polymers in each plate (2 plates total). Collagen standard and pbs only were obtained on each plate.
# [1] = test system: rat experimental model of glaucoma; assay: Study 2: intraocular pressure in rat experimental model of glaucoma (IC TGFβ1); assay type: in vivo; conditions: 10 µl eye drop twice a day, day 14 to 28
# Protocol: A rat experimental model of glaucoma was used. All rats received twice weekly intracameral (IC) injections of 3.5 µl 5 µg/ml TGFβ1 from the start of the experiment (day 0) until the end (day 28). This establishes the experimental glaucoma model.
# Intraocular pressure (IOP) measures were taken twice weekly using a rebound tonometer, between the hours of 9-11am (to reduce circadian fluctuations in IOP) and before TGFβ injections were administered.
# On day 14 rats then also received a single 10 µl eye drop (ED) of either a composition of the invention or a composition representing the standard of care. The eyedrops were administered by pipette, twice a day, every day between day 14 and day 28. Gellan fluid gels were prepared as describe above, and the various sulphated polysaccharides investigated (dextran sulphate, fucoidan, or heparan sulphate) were mixed into the fluid gel at a concentration of 1 mg/ml prior to administration as a single formulation eye drop.
# The most common eye drop prescribed clinically for the treatment of glaucoma is latanoprost 50 µg/ml (Xalatan®). Therefore, this treatment was used in this study for the standard of care (SOC).
# The groups investigated in the study were as follows: […]
# T1 sequence (P02454 152-1207 limits assumed): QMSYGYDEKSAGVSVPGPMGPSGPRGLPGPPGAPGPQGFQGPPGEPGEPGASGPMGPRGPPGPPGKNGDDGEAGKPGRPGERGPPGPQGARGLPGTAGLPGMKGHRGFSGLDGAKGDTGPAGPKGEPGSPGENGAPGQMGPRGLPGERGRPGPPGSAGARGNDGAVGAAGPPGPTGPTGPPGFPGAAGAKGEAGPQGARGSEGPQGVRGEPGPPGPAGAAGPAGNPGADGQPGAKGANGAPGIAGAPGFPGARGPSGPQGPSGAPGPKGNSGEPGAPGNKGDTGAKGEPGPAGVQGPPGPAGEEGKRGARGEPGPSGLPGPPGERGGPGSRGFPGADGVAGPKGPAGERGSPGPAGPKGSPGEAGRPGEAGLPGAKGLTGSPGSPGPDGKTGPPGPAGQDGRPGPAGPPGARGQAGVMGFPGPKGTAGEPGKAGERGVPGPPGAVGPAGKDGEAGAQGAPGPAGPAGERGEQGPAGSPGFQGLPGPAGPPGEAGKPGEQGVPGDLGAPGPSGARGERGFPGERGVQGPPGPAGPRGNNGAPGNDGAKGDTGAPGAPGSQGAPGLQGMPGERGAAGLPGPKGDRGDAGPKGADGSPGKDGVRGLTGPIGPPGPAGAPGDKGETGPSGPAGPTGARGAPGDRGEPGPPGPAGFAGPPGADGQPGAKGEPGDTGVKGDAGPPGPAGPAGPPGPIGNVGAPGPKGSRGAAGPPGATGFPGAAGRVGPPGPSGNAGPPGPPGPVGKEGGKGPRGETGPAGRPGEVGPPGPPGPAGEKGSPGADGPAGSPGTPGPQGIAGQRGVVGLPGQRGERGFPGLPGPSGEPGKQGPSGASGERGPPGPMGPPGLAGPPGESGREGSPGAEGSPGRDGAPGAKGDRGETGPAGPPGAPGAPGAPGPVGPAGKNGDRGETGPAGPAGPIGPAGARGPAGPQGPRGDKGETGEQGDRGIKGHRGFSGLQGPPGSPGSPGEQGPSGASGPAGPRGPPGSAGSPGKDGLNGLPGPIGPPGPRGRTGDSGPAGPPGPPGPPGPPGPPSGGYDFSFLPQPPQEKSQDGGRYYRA
# T1 sequence (P02466 86-1125 limits assumed): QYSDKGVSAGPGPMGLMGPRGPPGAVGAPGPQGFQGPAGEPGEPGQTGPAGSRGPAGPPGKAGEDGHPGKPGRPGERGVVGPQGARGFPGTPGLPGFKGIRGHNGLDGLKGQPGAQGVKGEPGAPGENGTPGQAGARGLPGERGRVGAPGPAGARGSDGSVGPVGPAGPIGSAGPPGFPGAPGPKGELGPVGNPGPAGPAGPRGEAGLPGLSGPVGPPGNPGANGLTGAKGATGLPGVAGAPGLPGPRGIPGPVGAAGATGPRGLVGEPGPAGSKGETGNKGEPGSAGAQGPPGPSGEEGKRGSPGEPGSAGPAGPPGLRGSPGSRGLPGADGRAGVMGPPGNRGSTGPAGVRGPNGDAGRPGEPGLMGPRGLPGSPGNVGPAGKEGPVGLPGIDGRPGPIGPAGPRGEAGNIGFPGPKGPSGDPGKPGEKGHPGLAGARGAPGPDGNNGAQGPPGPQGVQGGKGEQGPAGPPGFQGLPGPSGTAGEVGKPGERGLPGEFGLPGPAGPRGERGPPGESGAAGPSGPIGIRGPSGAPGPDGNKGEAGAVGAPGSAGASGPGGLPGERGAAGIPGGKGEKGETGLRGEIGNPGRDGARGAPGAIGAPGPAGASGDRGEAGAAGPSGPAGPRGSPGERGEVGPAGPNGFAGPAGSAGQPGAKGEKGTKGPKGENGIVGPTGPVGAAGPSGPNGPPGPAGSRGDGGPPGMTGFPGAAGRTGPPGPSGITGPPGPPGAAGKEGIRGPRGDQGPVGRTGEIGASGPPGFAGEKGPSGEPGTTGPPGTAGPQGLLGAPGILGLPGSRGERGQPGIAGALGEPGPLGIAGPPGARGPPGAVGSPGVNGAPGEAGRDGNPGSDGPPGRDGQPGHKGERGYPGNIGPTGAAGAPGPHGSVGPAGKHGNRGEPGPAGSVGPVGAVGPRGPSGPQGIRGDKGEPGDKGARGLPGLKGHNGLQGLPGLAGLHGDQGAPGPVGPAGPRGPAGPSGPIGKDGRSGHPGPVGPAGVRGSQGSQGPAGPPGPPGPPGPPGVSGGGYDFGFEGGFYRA
dose required to achieve a 50% reduction in turbidity (rank order; higher degree of sulphonation requires lower dose) (Collagen - Rat tail),Compound,inhibition of collagen fibrillogenesis / collagen fibril formation (Collagen - Rat tail),IOP compared to glaucomatous eyes without any treatment [1]
lota > lambda > gellan,gellan,–,–
–,carrageenan,inhibit collagen fibrillogenesis (indicative of an anti-fibrotic activity) in a dose-dependent manner,–
–,dextran sulphate,dose-dependent ability to inhibit collagen fibrillogenesis,–
lota > lambda > gellan,iota carrageenan,inhibit collagen fibril formation,–
–,kappa carrageenan,inhibit collagen fibril formation,–
–,"CC(C)OC(=O)CCC/C=C\C[C@@H]1[C@@H](CC[C@@H](O)CCc2ccccc2)[C@H](O)C[C@@H]1O [SOC, latanoprost]",–,significantly reduced IOP
–,heparan sulphate,inhibit collagen fibrillogenesis (indicative of an anti-fibrotic activity) in a dose-dependent manner; also recorded: inhibit collagen fibril formation,–
